Consider eleven compounds from patent publication US20210038607A1, “OXADIAZOLYLTHIOPHENE DERIVATIVES USEFUL AS HISTONE DEACETYLASE INHIBITORS” (Karus Therapeutics Limited, priority 2018, published 2021).

One assay concerns the target T1, Human HDAC1 (Homo sapiens, UniProt Q13547).
T1 construct: full length with C-terminal His-tag and C-terminal FLAG-tag; His (C); FLAG (C); host or cells: baculovirus expression system
Kind of assay: HDAC1 biochemical assay, AMC-labeled peptide substrate. As to conditions: read-out: HDAC Isoform IC50 (nM) 1. The method in brief:
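Baculovirus-expressed full-length human HDAC1 with His and FLAG tags, 0.3 ng/ul, incubated 1 h at 30° C with compound and 50 μM RHKK(Ac)AMC in Tris pH 8.0 buffer with BSA and 1% DMSO. Developer then releases AMC from deacetylated substrate; fluorescence read at 360/460 nm.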

Assay [1] deals with T2, Complex of human HDAC3 and human NCOR2 (Homo sapiens, UniProt O15379).
T2 construct: full length with C-terminal His tag, MW=49.7 kDa; His (C); host or cells: baculovirus expression system (co-expressed)
Description: HDAC3 biochemical assay, AMC-labeled peptide substrate. Conditions: read-out: HDAC Isoform IC50 (nM) 3. The method in brief: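 Baculovirus-coexpressed His-tagged full-length HDAC3 with GST-NCOR2 (aa 395-489), 0.1 ng/ul, deacetylates 50 μM RHKK(Ac)AMC in Tris-HCl pH8.0 with BSA and 1% DMSO, 1 h at 30° C. Developer then cleaves deacetylated substrate; fluorescence read at 360/460 Ex/Em.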

For the next assay, the target named is T3, Human HDAC4 (Homo sapiens, UniProt P56524).
T3 construct: amino acids 627-1085 with N-terminal GST tag; GST (N); host or cells: baculovirus expression system
Kind of assay: HDAC4 biochemical assay, class IIa-specific substrate. As to conditions: read-out: HDAC Isoform IC50 (nM) 4. The method in brief:
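GST-tagged human HDAC4 (aa 627-1085, baculovirus) at 0.004 ng/ul was incubated 30 min at room temperature with 50 μM class IIa-specific substrate BOC-Lys(trifluoroacetyl)-AMC in Tris-HCl pH 8.0 buffer with BSA, 1% DMSO. Developer then released AMC, read at 360/460 nm.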

The target in the next assay is T4, Human HDAC8 (Homo sapiens, UniProt Q9BY41).
T4 construct: full length with C-terminal His tag, MW=42.6 kDa; His (C); host or cells: baculovirus expression system
T4 sequence (Q9BY41 1-377): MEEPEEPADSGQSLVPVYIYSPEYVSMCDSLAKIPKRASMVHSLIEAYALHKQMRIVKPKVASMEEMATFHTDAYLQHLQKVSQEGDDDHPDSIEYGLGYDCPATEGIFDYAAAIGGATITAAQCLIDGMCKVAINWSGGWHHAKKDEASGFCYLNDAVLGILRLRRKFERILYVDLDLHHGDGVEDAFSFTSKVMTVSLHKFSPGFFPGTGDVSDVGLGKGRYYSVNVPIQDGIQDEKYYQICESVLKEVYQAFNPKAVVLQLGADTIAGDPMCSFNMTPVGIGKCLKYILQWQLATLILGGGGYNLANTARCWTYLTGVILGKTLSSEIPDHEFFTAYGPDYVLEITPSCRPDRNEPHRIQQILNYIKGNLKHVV
Kind of assay: HDAC8 biochemical assay, AMC-labeled peptide substrate. As to conditions: read-out: HDAC Isoform IC50 (nM) 8. The gist of the method: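 Full-length human HDAC8 with C-terminal His tag, baculovirus-expressed, 1 ng/ul, with 100 µM RHK(Ac)K(Ac)AMC substrate in Tris-HCl pH8.0 buffer with BSA, 1% DMSO. Incubated 2 h at 30° C, then developer added to cleave deacetylated substrate; fluorescence read at 360/460 Ex/Em.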

A further assay concerns the target T5, Human HDAC9 (Homo sapiens, UniProt Q9UKV0).
T5 construct: amino acids 604-1066 with C-terminal His tag; His (C); host or cells: baculovirus expression system
Kind of assay: HDAC9 biochemical assay, class IIa-specific substrate. Conditions: read-out: HDAC Isoform IC50 (nM) 9. The method in brief:
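HDAC9 residues 604-1066 (C-terminal His tag, baculovirus-expressed) at 0.06 ng/ul with 50 μM class IIa substrate Boc-Lys(trifluoroacetyl)-AMC in Tris-HCl pH 8.0 buffer with BSA and 1% DMSO. 30 min at room temperature, then developer added; fluorescence read at 360/460 nm Ex/Em.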

The target of a further assay is T6, Human HDAC11 (Homo sapiens, UniProt Q96DB2).
T6 construct: Human HDAC11 (full length); His (N); host or cells: baculovirus expression system
T6 sequence (Q96DB2 1-347): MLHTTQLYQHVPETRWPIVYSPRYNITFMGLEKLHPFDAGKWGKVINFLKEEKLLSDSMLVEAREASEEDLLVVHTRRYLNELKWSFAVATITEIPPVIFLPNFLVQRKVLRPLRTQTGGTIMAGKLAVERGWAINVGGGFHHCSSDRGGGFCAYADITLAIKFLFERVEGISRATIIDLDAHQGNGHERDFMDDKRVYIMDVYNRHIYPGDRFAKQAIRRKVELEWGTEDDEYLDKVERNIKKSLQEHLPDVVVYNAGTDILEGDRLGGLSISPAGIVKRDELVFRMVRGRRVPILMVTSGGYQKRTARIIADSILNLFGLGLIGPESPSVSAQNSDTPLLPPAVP
Kind of assay: HDAC11 biochemical assay, class IIa-specific substrate. Conditions: read-out: HDAC Isoform IC50 (nM) 11. The method in brief:
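Full-length N-His human HDAC11 from baculovirus, 5 ng/μl, incubated with 50 μM Boc-Lys(trifluoroacetyl)-AMC for 30 min at 30 °C. Buffer: 50 mM Tris-HCl pH 8.0, 137 mM NaCl, 2.7 mM KCl, 1 mM MgCl2, 1 mg/mL BSA, 1% DMSO. Developer releases AMC; fluorescence read at 360/460 nm.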

Some results are limits rather than exact numbers.

T2 sequence (O15379 whole entry): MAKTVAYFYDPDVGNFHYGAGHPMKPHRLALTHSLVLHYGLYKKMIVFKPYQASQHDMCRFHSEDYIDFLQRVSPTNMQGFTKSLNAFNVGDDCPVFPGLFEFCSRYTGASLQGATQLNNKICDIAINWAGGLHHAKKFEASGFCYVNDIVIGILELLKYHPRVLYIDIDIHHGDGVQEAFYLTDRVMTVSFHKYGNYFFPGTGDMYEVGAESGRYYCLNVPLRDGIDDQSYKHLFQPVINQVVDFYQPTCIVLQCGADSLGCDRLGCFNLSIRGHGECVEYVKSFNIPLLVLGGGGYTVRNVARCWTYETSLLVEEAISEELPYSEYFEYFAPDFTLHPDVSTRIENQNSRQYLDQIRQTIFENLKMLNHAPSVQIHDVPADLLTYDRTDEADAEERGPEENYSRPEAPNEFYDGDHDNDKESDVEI
T2 sequence (Q9Y618 395-489 partner limits assumed): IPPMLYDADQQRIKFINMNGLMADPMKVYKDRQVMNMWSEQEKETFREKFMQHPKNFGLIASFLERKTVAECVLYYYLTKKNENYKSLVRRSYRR
T3 sequence (P56524 627-1084 limits assumed): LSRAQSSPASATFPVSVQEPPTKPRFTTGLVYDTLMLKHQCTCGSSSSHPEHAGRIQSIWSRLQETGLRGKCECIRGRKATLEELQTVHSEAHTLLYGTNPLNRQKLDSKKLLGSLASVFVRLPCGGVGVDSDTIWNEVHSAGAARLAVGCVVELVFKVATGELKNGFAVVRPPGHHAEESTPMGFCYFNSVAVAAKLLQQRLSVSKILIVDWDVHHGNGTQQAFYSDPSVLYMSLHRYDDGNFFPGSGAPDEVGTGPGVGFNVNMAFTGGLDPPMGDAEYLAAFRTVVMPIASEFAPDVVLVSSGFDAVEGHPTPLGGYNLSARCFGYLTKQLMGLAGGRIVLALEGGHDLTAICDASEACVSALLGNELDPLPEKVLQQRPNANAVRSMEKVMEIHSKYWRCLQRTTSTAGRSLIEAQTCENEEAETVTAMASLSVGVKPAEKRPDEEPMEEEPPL
T5 sequence (Q9UKV0 604-1066 isoform Q9UKV0-5): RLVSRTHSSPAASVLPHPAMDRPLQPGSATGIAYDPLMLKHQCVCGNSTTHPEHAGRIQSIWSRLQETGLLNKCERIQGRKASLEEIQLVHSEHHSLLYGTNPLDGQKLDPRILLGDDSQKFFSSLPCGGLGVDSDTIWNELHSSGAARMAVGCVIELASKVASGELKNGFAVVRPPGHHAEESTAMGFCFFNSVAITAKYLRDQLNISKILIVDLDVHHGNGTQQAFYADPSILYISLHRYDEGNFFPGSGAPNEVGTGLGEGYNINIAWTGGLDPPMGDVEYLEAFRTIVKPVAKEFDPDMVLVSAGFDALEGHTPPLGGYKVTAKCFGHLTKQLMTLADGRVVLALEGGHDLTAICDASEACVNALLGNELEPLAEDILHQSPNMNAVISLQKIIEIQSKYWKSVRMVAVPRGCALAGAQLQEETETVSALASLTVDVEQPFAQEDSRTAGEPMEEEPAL
T1 sequence (Q13547 whole entry): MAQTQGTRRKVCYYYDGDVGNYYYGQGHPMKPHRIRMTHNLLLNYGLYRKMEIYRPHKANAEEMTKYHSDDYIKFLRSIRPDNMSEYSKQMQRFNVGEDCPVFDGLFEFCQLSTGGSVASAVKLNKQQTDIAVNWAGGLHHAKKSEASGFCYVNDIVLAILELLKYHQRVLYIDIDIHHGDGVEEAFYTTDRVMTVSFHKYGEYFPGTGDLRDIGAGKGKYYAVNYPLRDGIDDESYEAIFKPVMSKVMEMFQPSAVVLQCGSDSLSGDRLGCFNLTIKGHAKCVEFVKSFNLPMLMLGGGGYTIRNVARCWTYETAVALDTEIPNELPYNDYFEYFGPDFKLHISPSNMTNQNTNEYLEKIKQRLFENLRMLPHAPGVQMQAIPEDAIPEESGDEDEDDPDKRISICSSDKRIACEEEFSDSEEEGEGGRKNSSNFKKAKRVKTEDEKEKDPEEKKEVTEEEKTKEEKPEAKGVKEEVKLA

By IC50 is commonly meant the concentration that inhibits the measured activity by half. Turning to `[O-][S+]1CCN(Cc2ccc(N(Cc3ccc(-c4noc(C(F)(F)F)n4)s3)c3cnccn3)nn2)CC1` [Example FO, 4-({6-[(Pyrazin-2-yl)({5-[5-(trifluoromethyl)-1,2,4-oxadiazol-3-yl]thiophen-2-yl}methyl)amino]pyridazin-3-yl}methyl)-1lambda4-thiomorpholin-1-one], the IC50 on Human HDAC1 is > 10000 nM; in assay [1], > 10000 nM; at Human HDAC4 it was ≤ 1000 nM; on Human HDAC8, ≤ 10000 nM; on Human HDAC9 it was ≤ 10000 nM; on Human HDAC11, > 10000 nM.
On to `FC(F)(F)c1nc(-c2ccc(CN(c3cnccn3)c3cc(N4CCOCC4)cnn3)s2)no1` [Example FP, 5-(Morpholin-4-yl)-N-(pyrazin-2-yl)-N-({5-[5-(trifluoromethyl)-1,2,4-oxadiazol-3-yl]thiophen-2-yl}methyl)pyridazin-3-amine], for which the IC50 on Human HDAC1 is > 10000 nM; in assay [1], > 10000 nM; at Human HDAC4, ≤ 1000 nM; on Human HDAC8, ≤ 10000 nM; on Human HDAC9, ≤ 10000 nM; on Human HDAC11, > 10000 nM.
Turning to `FC(F)(F)c1nc(-c2ccc(CN(c3cnccn3)c3cc(N4CCCC4)cnn3)s2)no1` [Example FQ, N-(Pyrazin-2-yl)-5-(pyrrolidin-1-yl)-N-({5-[5-(trifluoromethyl)-1,2,4-oxadiazol-3-yl]thiophen-2-yl}methyl)pyridazin-3-amine], the IC50 at Human HDAC1 is > 10000 nM; in assay [1] it was > 10000 nM; on Human HDAC4, ≤ 10000 nM; on Human HDAC8 it was ≤ 10000 nM; at Human HDAC9, ≤ 10000 nM; on Human HDAC11 it was > 10000 nM.
On to `O=C(c1ccc(N(Cc2ccc(-c3noc(C(F)(F)F)n3)s2)c2cnccn2)nn1)N1C[C@@H]2C[C@H]1C[S@@+]2[O-]` [Example FR, (1S,2R,4S)-5-{6-[(Pyrazin-2-yl)({5-[5-(trifluoromethyl)-1,2,4-oxadiazol-3-yl]thiophen-2-yl}methyl)amino]pyridazine-3-carbonyl}-2-thia-5-azabicyclo[2.2.1]heptan-2-ium-2-olate], for which the IC50 is ≤ 10000 nM at Human HDAC1; ≤ 10000 nM in assay [1]; ≤ 500 nM on Human HDAC4; ≤ 10000 nM on Human HDAC8; ≤ 1000 nM at Human HDAC9; > 10000 nM at Human HDAC11.
For `O=C(c1cnnc(N(Cc2ccc(-c3noc(C(F)(F)F)n3)s2)c2cnccn2)c1)N1CCC1` [Example FS, 5-(Azetidine-1-carbonyl)-N-(pyrazin-2-yl)-N-({5-[5-(trifluoromethyl)-1,2,4-oxadiazol-3-yl]thiophen-2-yl}methyl)pyridazin-3-amine], the IC50 is > 10000 nM at Human HDAC1; > 10000 nM in assay [1]; ≤ 10000 nM on Human HDAC4; ≤ 10000 nM on Human HDAC8; ≤ 10000 nM on Human HDAC9; > 10000 nM on Human HDAC11.
Regarding `O=C(c1cnnc(N(Cc2ccc(-c3noc(C(F)(F)F)n3)s2)c2cnccn2)c1)N1CC(F)(F)C1` [Example FT, 5-(3,3-Difluoroazetidine-1-carbonyl)-N-(pyrazin-2-yl)-N-({5-[5-(trifluoromethyl)-1,2,4-oxadiazol-3-yl]thiophen-2-yl}methyl)pyridazin-3-amine], the IC50 at Human HDAC1 was > 10000 nM; in assay [1], > 10000 nM; at Human HDAC4, ≤ 10000 nM; at Human HDAC8 it was ≤ 10000 nM; at Human HDAC9, ≤ 10000 nM; on Human HDAC11, > 10000 nM.
As for `O=C(c1cnnc(N(Cc2ccc(-c3noc(C(F)(F)F)n3)s2)c2cnccn2)c1)N1CC[S+]([O-])CC1` [Example FU, 4-{6-[(Pyrazin-2-yl)({5-[5-(trifluoromethyl)-1,2,4-oxadiazol-3-yl]thiophen-2-yl}methyl)amino]pyridazine-4-carbonyl}-1lambda4-thiomorpholin-1-one], the IC50 on Human HDAC1 is > 10000 nM; in assay [1], > 10000 nM; on Human HDAC4 it was ≤ 10000 nM; at Human HDAC8, ≤ 10000 nM; on Human HDAC9, ≤ 10000 nM; at Human HDAC11 it was > 10000 nM.
For the compound `O=C(c1cnnc(N(Cc2ccc(-c3noc(C(F)(F)F)n3)s2)c2cnccn2)c1)N1C[C@@H]2C[C@H]1CO2` [Example FV, 5-[(1S,4S)-2-Oxa-5-azabicyclo[2.2.1]heptane-5-carbonyl]-N-(pyrazin-2-yl)-N-({5-[5-(trifluoromethyl)-1,2,4-oxadiazol-3-yl]thiophen-2-yl}methyl)pyridazin-3-amine], the half-maximal inhibitory concentration (IC50) on Human HDAC1 was > 10000 nM; in assay [1], > 10000 nM; at Human HDAC4 it was ≤ 10000 nM; at Human HDAC8 it was ≤ 10000 nM; at Human HDAC9, ≤ 10000 nM; at Human HDAC11, > 10000 nM.
For the compound `O=C(c1cnnc(N(Cc2ccc(-c3noc(C(F)(F)F)n3)s2)c2cnccn2)c1)N1C[C@H]2C[C@@H]1CO2` [Example FW, 5-[(1R,4R)-2-Oxa-5-azabicyclo[2.2.1]heptane-5-carbonyl]-N-(pyrazin-2-yl)-N-({5-[5-(trifluoromethyl)-1,2,4-oxadiazol-3-yl]thiophen-2-yl}methyl)pyridazin-3-amine], the IC50 was > 10000 nM on Human HDAC1; ≤ 10000 nM in assay [1]; ≤ 10000 nM at Human HDAC4; ≤ 10000 nM at Human HDAC8; ≤ 10000 nM on Human HDAC9; > 10000 nM on Human HDAC11.
On to `CN(C)C1CN(C(=O)c2cnnc(N(Cc3ccc(-c4noc(C(F)(F)F)n4)s3)c3cnccn3)c2)C1` [Example FX, 5-[3-(Dimethylamino)azetidine-1-carbonyl]-N-(pyrazin-2-yl)-N-({5-[5-(trifluoromethyl)-1,2,4-oxadiazol-3-yl]thiophen-2-yl}methyl)pyridazin-3-amine], for which the half-maximal inhibitory concentration (IC50) on Human HDAC1 is > 10000 nM; in assay [1], > 10000 nM; on Human HDAC4, ≤ 10000 nM; on Human HDAC8, ≤ 10000 nM; on Human HDAC9, ≤ 10000 nM; at Human HDAC11 it was > 10000 nM.
With `O=C(c1cnnc(N(Cc2ccc(-c3noc(C(F)(F)F)n3)s2)c2cnccn2)c1)N1CCC(F)(F)CC1` [Example FY, 5-(4,4-Difluoropiperidine-1-carbonyl)-N-(pyrazin-2-yl)-N-({5-[5-(trifluoromethyl)-1,2,4-oxadiazol-3-yl]thiophen-2-yl}methyl)pyridazin-3-amine], the 50% inhibitory concentration (IC50) at Human HDAC1 was > 10000 nM; in assay [1], > 10000 nM; on Human HDAC4, ≤ 10000 nM; at Human HDAC8, ≤ 10000 nM; at Human HDAC9 it was ≤ 10000 nM; at Human HDAC11, > 10000 nM.
